Read-outs that look alike come from different tables or passages of the source.
Key:
HPK1 = HPK1 (Homo sapiens, UniProt Q92918); test: HPK1 Biochemical Assay (ADP-Glo luminescence; low ATP 10 μM or high ATP 200 μM)
[1] = tested on: p-SLP-76 (Ser376) in Jurkat cells; test: pSLP76 Cellular Assay (AlphaLISA SureFire Ultra p-SLP-76 (Ser376), anti-CD3 activated Jurkat cells); type: cell-based; details: read-out: Cellular Potency
Summary of the method: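 Read-out is AlphaLISA p-SLP-76 (Ser376) signal at 570 nm in Jurkat lysates, with IC50 fitted by 4-parameter logistic. Cells were starved overnight, exposed 1 h at 37 °C to 22 twofold compound dilutions in HBSS, then activated 45 min with anti-CD3 (0.025 mg/ml stock added).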

[2] = HPK1 ADP-Glo assay, low ATP (10 μM ATP, 2 nM HPK1), read-out: Biochemical Potency (low ATP)
[3] = 2 nM HPK1, 10 μM ATP, read-out: Biochemical Potency (low ATP)
[4] = Homo sapiens, Jurkat cells, anti-CD3 stimulation, pSLP76
[5] = HPK1 ADP-Glo assay, high ATP (200 μM ATP, 5 nM HPK1), read-out: Biochemical Potency (high ATP)
[6] = Homo sapiens, pSLP76 (Ser376) AlphaLISA, anti-CD3 activated Jurkat cells

Sequence of HPK1 (Q92918 whole entry, species assumed): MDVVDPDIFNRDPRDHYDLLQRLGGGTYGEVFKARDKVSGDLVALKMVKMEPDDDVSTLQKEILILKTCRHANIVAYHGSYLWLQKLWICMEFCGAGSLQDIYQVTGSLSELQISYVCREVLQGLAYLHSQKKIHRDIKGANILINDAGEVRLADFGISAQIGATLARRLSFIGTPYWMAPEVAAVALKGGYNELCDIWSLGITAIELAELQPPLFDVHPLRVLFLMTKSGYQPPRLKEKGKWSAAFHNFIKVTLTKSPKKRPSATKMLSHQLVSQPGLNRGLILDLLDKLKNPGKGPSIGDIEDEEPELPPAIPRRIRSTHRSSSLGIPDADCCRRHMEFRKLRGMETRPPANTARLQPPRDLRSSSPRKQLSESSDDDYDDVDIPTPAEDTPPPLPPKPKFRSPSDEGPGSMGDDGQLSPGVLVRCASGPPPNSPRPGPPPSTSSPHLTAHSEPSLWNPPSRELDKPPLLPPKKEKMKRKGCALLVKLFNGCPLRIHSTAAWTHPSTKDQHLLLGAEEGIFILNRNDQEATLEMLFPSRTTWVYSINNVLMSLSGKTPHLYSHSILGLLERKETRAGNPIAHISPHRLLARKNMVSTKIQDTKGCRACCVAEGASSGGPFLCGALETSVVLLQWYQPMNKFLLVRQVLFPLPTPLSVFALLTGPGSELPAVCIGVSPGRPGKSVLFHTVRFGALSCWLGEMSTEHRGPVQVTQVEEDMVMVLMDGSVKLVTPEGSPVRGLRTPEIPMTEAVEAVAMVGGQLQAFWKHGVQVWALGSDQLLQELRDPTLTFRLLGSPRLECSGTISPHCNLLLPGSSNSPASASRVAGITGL

| SMILES | IC50 (HPK1; [3]) [nM] | IC50 [1, 4] [nM] | IC50 (HPK1; [5]) [nM] | IC50 [1, 6] [nM] | other results |
| --- | --- | --- | --- | --- | --- |
| CN1C[C@@H]2C[C@H]1CN2c1nccc(Nc2cc3nc(-c4ccnc(N5CCOCC5)c4)sc3cn2)n1 [Example 460] |  |  |  |  | IC50 (HPK1; [2]): < 100 nM; IC50 ([1]; pSLP76 (Ser376) AlphaLISA, anti-CD3 activated Jurkat cells): 100 to 1000 nM |
| COCCN(C)C(=O)c1cccc(-c2nc3cc(Nc4cc(C)nc(N5C[C@@H]6C[C@H]5CN6C)n4)ncc3s2)c1 [Example 566] |  |  | < 100 | 100 to 1000 |  |
| Cc1cc(Nc2cc3nc(-c4cccc(C(=O)N(C)C)c4)sc3cn2)nc(N2C[C@@H]3C[C@H]2CN3C[C@@H]2CCOC2)n1 [Example 488] |  |  | < 100 | 100 to 1000 |  |
| Cc1cc(Nc2cc3nc(-c4cccc(-c5ccn(C)n5)c4)sc3cn2)nc(N2C[C@@H]3C[C@H]2CN3C)n1 [Example 365] |  |  | < 100 | 5000 to 25000 |  |
| Cc1cc(Nc2cc3nc(-c4ncccc4OC(F)F)sc3cn2)nc(N2C[C@@H]3C[C@H]2CN3C)n1 [Example 468] |  |  | < 100 | 100 to 1000 |  |
| Cc1cccnc1-c1nc2cc(Nc3ccc(C)c(N4C[C@@H]5C[C@H]4CN5)n3)ncc2s1 [Example 84, 6-[(1S,4S)-2,5-Diazabicyclo[2.2.1]heptan-2-yl]-5-methyl-N-[2-(3-methylpyridin-2-yl)-[1,3]thiazolo[5,4-c]pyridin-6-yl]pyridin-2-amine] | < 100 | 100 to 1000 |  |  |  |
| Cc1cc(Nc2cc3nc(-c4ccnc(C(C)(C)O)c4)sc3cn2)nc(N2C[C@@H]3C[C@H]2CN3C)n1 [Example 406] |  |  | < 100 | 100 to 1000 | IC50 (HPK1; [2]): < 100 nM |
| CCN1C[C@@H]2C[C@H]1CN2c1nc(C)cc(Nc2cc3nc(-c4cccc(C(=O)Nc5ccccc5)c4)sc3cn2)n1 [Example 522] |  |  | < 100 | 100 to 1000 |  |
| CCN1C[C@@H]2C[C@H]1CN2c1nc(Nc2cc3nc(-c4cccc(C(=O)N5CCC(F)CC5)c4)sc3cn2)ccc1C [Example 321] |  |  | < 100 | 100 to 1000 |  |
| CN(C)Cc1cc(N2CCOCC2)cc(Nc2cc3nc(-c4c(F)cccc4F)sc3cn2)n1 [Example 275, N-[2-(2,6-Difluorophenyl)-[1,3]thiazolo[5,4-c]pyridin-6-yl]-6-[(dimethylamino)methyl]-4-(morpholin-4-yl)pyridin-2-amine] | < 100 | > 5000 |  |  |  |
| CCN1C[C@@H]2C[C@H]1CN2c1nc(C)cc(Nc2cc3nc(-c4cc(Cl)cc(C(=O)N(C)C)c4)sc3cn2)n1 [Example 519] |  |  | < 100 | 100 to 1000 |  |
| Cc1cc(Nc2cc3nc(-c4cccc(S(=O)(=O)C5CC5)c4)sc3cn2)nc(N2C[C@@H]3C[C@H]2CN3CCO)n1 [Example 500] |  |  | < 100 | < 100 |  |
| CN1C[C@@H]2C[C@H]1CN2c1cccc(Nc2cc3nc(-c4cccc(C(C)(C)O)c4)sc3cn2)n1 [Example 132, 2-{3-[6-({6-[(1S,4S)-5-Methyl-2,5-diazabicyclo[2.2.1]heptan-2-yl]pyridin-2-yl}amino)-[1,3]thiazolo[5,4-c]pyridin-2-yl]phenyl}propan-2-ol] | < 100 | < 100 |  |  |  |
| CC(C)(N)c1nc(Nc2cc3nc(-c4c(F)cccc4F)sc3cn2)ccc1N1CCOCC1 [Example 269, 6-(2-Aminopropan-2-yl)-N-[2-(2,6-difluorophenyl)-[1,3]thiazolo[5,4-c]pyridin-6-yl]-5-(morpholin-4-yl)pyridin-2-amine] | < 100 | 1000 to 5000 |  |  |  |

The next lines start with results.

| IC50 (HPK1; [3]) [nM] | IC50 [1, 4] [nM] | IC50 (HPK1; [5]) [nM] | IC50 [1, 6] [nM] | SMILES | other results |
| --- | --- | --- | --- | --- | --- |
| < 100 | 100 to 1000 |  |  | CN1C[C@@H]2C[C@H]1CN2c1nccc(Nc2cc3nc(-c4ccnc(N5CC[C@@H](O)C5)c4)sc3cn2)n1 [Example 264, (3R)-1-{4-[6-({2-[(1S,4S)-5-Methyl-2,5-diazabicyclo[2.2.1]heptan-2-yl]pyrimidin-4-yl}amino)-[1,3]thiazolo[5,4-c]pyridin-2-yl]pyridin-2-yl}pyrrolidin-3-ol] |  |
|  |  | < 100 | < 100 | CCN1C[C@@H]2C[C@H]1CN2c1nc(C)cc(Nc2cc3nc(-c4cccc(C(=O)NC5CCOC5)c4)sc3cn2)n1 (some centres unmarked) [Example 556] |  |
| < 100 | 100 to 1000 |  |  | c1cncc(-c2nc3cc(Nc4ccc([C@@H]5CCOC5)c(CN5CCCC5)n4)ncc3s2)c1 (single isomer, unassigned) [Example 261, 5-[(3R or 3S)—Oxolan-3-yl]-N-[2-(pyridin-3-yl)-[1,3]thiazolo[5,4-c]pyridin-6-yl]-6-[(pyrrolidin-1-yl)methyl]pyridin-2-amine] |  |
|  |  |  | 1000 to 5000 | Cc1cccnc1-c1nc2cc(Nc3ccc4c(n3)[C@](C)(N)CC4)ncc2s1 [Example 577] | IC50 (HPK1; [2]): < 100 nM |
|  |  | < 100 | 100 to 1000 | Cc1cccnc1-c1nc2cc(Nc3cc(C(F)(F)F)cc(N4C[C@@H]5C[C@H]4CN5C)n3)ncc2s1 [Example 323] | IC50 (HPK1; [2]): < 100 nM |
|  |  |  | 5000 to 25000 | Fc1cccc(F)c1-c1nc2cc(Nc3cc4c(cn3)CCNC4)ncc2s1 [Example 486] | IC50 (HPK1; [2]): 100 to 1000 nM |
|  |  | < 100 | < 100 | Cc1cc(Nc2cc3nc(-c4ccnc(N5CCOC[C@H]5C)c4)sc3cn2)nc(N2C[C@@H]3C[C@H]2CN3CCO)n1 [Example 450] |  |
| < 100 | 100 to 1000 |  |  | CN(C)Cc1nc(Nc2cc3nc(-c4ccncc4F)sc3cn2)ccc1N1CCOCC1 [Example 4, 6-[(Dimethylamino)methyl]-N-[2-(3-fluoropyridin-4-yl)-[1,3]thiazolo[5,4-c]pyridin-6-yl]-5-(morpholin-4-yl)pyridin-2-amine] |  |
| < 100 | 100 to 1000 |  |  | Cc1ccnn1-c1nc2cc(Nc3ccc(N4CCOCC4)c(C(C)(C)N)n3)ncc2s1 [Example 270, 6-(2-Aminopropan-2-yl)-N-[2-(5-methyl-1H-pyrazol-1-yl)-[1,3]thiazolo[5,4-c]pyridin-6-yl]-5-(morpholin-4-yl)pyridin-2-amine] |  |
|  |  |  | 100 to 1000 | Cc1cccnc1-c1nc2cc(Nc3ccc4c(n3)[C@@H](N)CC4)ncc2s1 [Example 581] | IC50 (HPK1; [2]): < 100 nM |
| < 100 | 100 to 1000 |  |  | CN(C)C(=O)c1cccc(-c2nc3cc(Nc4cccc(N5C[C@@H]6C[C@H]5CN6)n4)ncc3s2)c1 [Example 140, 3-[6-({6-[(1S,4S)-2,5-Diazabicyclo[2.2.1]heptan-2-yl]pyridin-2-yl}amino)-[1,3]thiazolo[5,4-c]pyridin-2-yl]-N,N-dimethylbenzamide] |  |
|  |  | < 100 | < 100 | CC[C@@H]1COCCN1c1cc(-c2nc3cc(Nc4cc(C)nc(N5C[C@@H]6C[C@H]5CN6CC)n4)ncc3s2)ccn1 [Example 475] |  |
|  |  | < 100 | 5000 to 25000 | Cc1cc(Nc2cc3nc(-c4cccc5c4CN(C)C5=O)sc3cn2)nc(N2C[C@@H]3C[C@H]2CN3C)n1 [Example 400] |  |
|  |  | < 100 | 5000 to 25000 | Cc1cc(Nc2cc3nc(-c4ccc5c(c4)CN(S(C)(=O)=O)CC5)sc3cn2)nc(N2C[C@@H]3C[C@H]2CN3C)n1 [Example 574] |  |
|  |  | < 100 | 100 to 1000 | Cc1cc(Nc2cc3nc(-c4cccc(C(=O)N5C[C@@H]6C[C@H]5CO6)c4)sc3cn2)nc(N2C[C@@H]3C[C@H]2CN3CCO)n1 [Example 564] |  |
|  |  | < 100 | < 100 | Cc1cc(Nc2cc3nc(-c4cccc(C(=O)N5CCC[C@@H]5C)c4)sc3cn2)nc(N2C[C@@H]3C[C@H]2CN3CCO)n1 [Example 548] |  |
